Test results as given in ChEMBL document CHEMBL1811880, “Studies on quinones. Part 47. Synthesis of novel phenylaminophenanthridinequinones as potential antitumor agents” (Eur J Med Chem, 2011).

How the values were obtained:
J82 = assay: Anticancer activity against human J82 cells after 3 days by MTT assay; format: functional, cell-based; settings: J82, 72 h
MRC5 [1] = assay: Anticancer activity against human MRC5 cells after 3 days by MTT assay; format: ADME, cell-based; settings: MRC5, 72 h
SK-MES-1 = assay: Anticancer activity against human SKMES1 cells after 3 days by MTT assay; format: functional, cell-based; settings: SK-MES-1, 72 h
AGS = assay: Anticancer activity against human AGS cells after 3 days by MTT assay; format: functional, cell-based; settings: 72 h
MRC5 [2] = assay: Selectivity index, ratio IC50 for human MRC5 cells to IC50 for human SKMES1 cells; format: functional
MRC5 [3] = assay: Selectivity index, ratio IC50 for human MRC5 cells to IC50 for human AGS cells; format: functional
MRC5 [4] = assay: Selectivity index, ratio IC50 for human MRC5 cells to IC50 for human J82 cells; format: functional

IC50 (SK-MES-1)	IC50 (AGS)	Compound	IC50 (J82)	IC50 (MRC5 [1])	Ratio IC50 (MRC5 [2])	Ratio IC50 (MRC5 [3])	Ratio IC50 (MRC5 [4])
73 µM	13.9 µM	O=C1CCCc2nc(-c3ccccc3)c3c(c21)C(=O)C=CC3=O	57.6 µM	31.2 µM	–	–	–
96.9 µM	68 µM	O=C1CCCc2nc(-c3ccco3)c3c(c21)C(=O)C=CC3=O	80.4 µM	59 µM	–	–	–
76.7 µM	37.1 µM	O=C1CCCc2nc(-c3ccsc3)c3c(c21)C(=O)C=CC3=O	> 100 µM	71 µM	–	–	–
1.3 µM	0.23 µM	O=C1C(Nc2ccccc2)=CC(=O)c2c1cnc1c2C(=O)CCC1	2.1 µM	1.4 µM	6	6	–
10.6 µM	4.7 µM	CN(C1=CC(=O)c2c(cnc3c2C(=O)CCC3)C1=O)c1ccccc1	12.9 µM	7.5 µM	–	–	–
7.5 µM	3.9 µM	O=C1C=C(Nc2ccccc2)C(=O)c2c1cnc1c2C(=O)CCC1	8.1 µM	5.9 µM	–	–	–
8.7 µM	8.3 µM	CN(C1=CC(=O)c2cnc3c(c2C1=O)C(=O)CCC3)c1ccccc1	8.4 µM	7.3 µM	–	–	–
5.7 µM	0.65 µM	Cc1nc2c(c3c1C(=O)C(Nc1ccccc1)=CC3=O)C(=O)CCC2	4.2 µM	2 µM	–	–	–
2.8 µM	0.33 µM	O=C1CCCc2nc(-c3ccccc3)c3c(c21)C(=O)C=C(Nc1ccccc1)C3=O	2.9 µM	2.7 µM	6	6	–
3.1 µM	0.58 µM	O=C1CCCc2nc(-c3ccco3)c3c(c21)C(=O)C=C(Nc1ccccc1)C3=O	2.4 µM	2.7 µM	–	–	–
2.9 µM	0.35 µM	O=C1CCCc2nc(-c3ccsc3)c3c(c21)C(=O)C=C(Nc1ccccc1)C3=O	2.5 µM	2.8 µM	6	6	–

Further lines, the molecule ahead of its results:

Compound	IC50 (SK-MES-1)	IC50 (AGS)	IC50 (J82)	IC50 (MRC5 [1])	Ratio IC50 (MRC5 [2])	Ratio IC50 (MRC5 [3])	Ratio IC50 (MRC5 [4])
COc1ccc(OC)c(NC2=CC(=O)c3c(c(C)nc4c3C(=O)CCC4)C2=O)c1	21.7 µM	1.4 µM	7.1 µM	5 µM	–	–	–
COc1ccc(NC2=CC(=O)c3c(cnc4c3C(=O)CCC4)C2=O)cc1	2 µM	0.47 µM	2.8 µM	2.6 µM	–	–	–
COc1ccc(OC)c(NC2=CC(=O)c3c(cnc4c3C(=O)CCC4)C2=O)c1	1.8 µM	0.32 µM	2.5 µM	2.6 µM	6	6	–
CCN(C1=CC(=O)c2c(cnc3c2C(=O)CCC3)C1=O)c1ccccc1	11.7 µM	4.4 µM	15.2 µM	8.6 µM	–	–	–
COc1ccc(NC2=CC(=O)c3cnc4c(c3C2=O)C(=O)CCC4)cc1	3.7 µM	2.2 µM	4 µM	4.8 µM	–	–	–
COc1ccc(OC)c(NC2=CC(=O)c3cnc4c(c3C2=O)C(=O)CCC4)c1	21.3 µM	32.9 µM	56.7 µM	46.4 µM	–	–	–
CCN(C1=CC(=O)c2cnc3c(c2C1=O)C(=O)CCC3)c1ccccc1	17.7 µM	17.1 µM	19.5 µM	19.6 µM	–	–	–
COc1ccc(NC2=CC(=O)c3c(c(C)nc4c3C(=O)CCC4)C2=O)cc1	4.1 µM	1.2 µM	3 µM	5.2 µM	–	–	–
Cc1nc2c(c3c1C(=O)C(Nc1ccc(O)cc1)=CC3=O)C(=O)CCC2	3.2 µM	1.2 µM	1.9 µM	2.6 µM	–	–	–
COc1ccccc1NC1=CC(=O)c2c(c(C)nc3c2C(=O)CCC3)C1=O	4.3 µM	0.22 µM	3.7 µM	1.6 µM	–	–	–
Cc1nc2c(c3c1C(=O)C(Nc1ccc(F)cc1)=CC3=O)C(=O)CCC2	3.3 µM	0.79 µM	3.8 µM	3 µM	–	–	–
COc1ccc(OC)c(NC2=CC(=O)c3c(cnc4cccc(O)c34)C2=O)c1	0.63 µM	0.18 µM	1.4 µM	0.53 µM	–	–	–
COc1ccc(OC)c(NC2=CC(=O)c3cnc4cccc(O)c4c3C2=O)c1	13.5 µM	19.8 µM	0.61 µM	17.2 µM	–	–	28
O=C1C=CC(=O)c2c1cnc1c2C(=O)CCC1	–	–	15.8 µM	–	–	–	–
COc1cc([C@@H]2c3cc4c(cc3[C@@H](O[C@@H]3O[C@@H]5CO[C@@H](C)O[C@H]5[C@H](O)[C@H]3O)[C@H]3COC(=O)[C@H]23)OCO4)cc(OC)c1O [ETOPOSIDE]	–	–	0.8 µM	–	–	–	–
